Assays:
IGROV1 cells = test: mRNA delivery in vitro assay (luciferase / mCherry mRNA); assay type: cell-based, human
Experimental: ZAL mRNA delivery in vitro assay: ZAL nanoparticles with firefly luciferase mRNA (Tri-Link Biotechnologies) were prepared using the in vitro nanoparticle formulation method outlined above. IGROV1 cells were seed in white opaque 96-well tissue culture plates at a seeding density of 5×10^3 cells per well in 100 μL RPMI 1640 medium supplemented with 5% FBS, and allowed to attach overnight. After overnight incubation, and additional 100 μL medium was added to the wells. The ZAL:mRNA nanoparticles were prepared at a ZAL:mRNA weight ratio of 20:1, 10:1, 7.5:1 and 5:1, and lipid mixture molar compositions of 50:38.5 ZAL:cholesterol, with PEG lipid supplemented at a molar ratio of 5%, 2%, 1% or 0.5% at each weight ratio. The ZAL-mRNA nanoparticles were added to the cells at a dose of 100 ng mRNA per well and incubated for the indicated time (ranging from 6 h to 48 h), after which time cell viability and luciferase expression were evaluated with the ONE-Glo+Tox Assay cell viability and luciferase assay (Promega) and normalized to untreated cells (N=4+/−standard deviation)
ZNPs with mRNA (Tri-Link Biotechnologies) were prepared using the in vitro nanoparticle formulation method outlined above. IGROV1 cells were seeded in white opaque 96-well tissue culture plates at a seeding density of 5×10^3 cells per well in 100 μL RPMI 1640 medium supplemented with 5% FBS, and allowed to attach overnight. After overnight incubation, an additional 100 μL medium was added to the wells. The ZAL:mRNA nanoparticles were prepared at ZAL:mRNA weight ratios of 20:1, 10:1, 7.5:1 and 5:1, and lipid mixture molar compositions of 50:38.5:n ZAL:cholesterol:PEG-lipid, where n=5, 2, 1, and 0.5 at each weight ratio. The ZAL-mRNA nanoparticles were added to the cells at the appropriate mRNA dose and incubated for the indicated time (ranging from 6 h to 48 h), after which time cell viability and luciferase expression were evaluated with the ONE-Glo+Tox Assay (Promega) and normalized to untreated cells (N=4+/−standard deviation).

[1] = Nanoparticle size by dynamic light scattering; assay type: physicochemical; conditions: Luc mRNA NPs, varied PEG-lipid
Experimental: (§1) Nanoparticle property characterization: Physical properties were measured using a Zetasizer Nano ZS (Malvern) with an He—Ne laser (λ=632 nm). Particle sizes were measured by dynamic light scattering (DLS) (5 measurements, 3 runs×10 seconds, automatic attenuator setting) by 173° back scattering. Zeta potential was measured in a folded capillary cell (Malvern) with samples diluted in PBS for ZAL NPs or citrate phosphate buffer pH 7.4 for CSAL NPs.
as §1, with “Physical” for “Nanoparticle property characterization: Physical”

[2] = In vivo luciferase mRNA delivery (bioluminescence imaging); set-up: species or system mice; conditions: Luc mRNA i.v., 24 h; athymic nude 1 mg/kg, C57BL/6 4 mg/kg, NSG 1 mg/kg
Experimental: In vivo luciferase mRNA delivery: All experiments were approved by the Institutional Animal Care & Use Committee (IACUC) of The University of Texas Southwestern Medical Center and were consistent with local, state and federal regulations as applicable. ZA3-Ep10 ZAL was formulated with in vivo formulation at 50 ZAL:38.5 cholesterol: 2 or 0.5 PEG-lipid mole ratio in the lipid mix, and 7.5:1 ZAL:mRNA weight ratio. Athymic Nude-Foxn1^nu mice (Harlan Laboratories) were injected with ZAL-mRNA NPs at a dose of 1 mg/kg via tail vein injection or intraperiotneal injection. After 24 h and 48 h the luciferase expression was evaluated by live animal bioluminescence imaging Animals were anesthetized under isofluorane, and D-luciferin monosodium hydrate (GoldBio) substrate was injected IP. […]
All experiments were approved by the Institutional Animal Care & Use Committee (IACUC) of The University of Texas Southwestern Medical Center and were consistent with local, state and federal regulations as applicable. […] After 24 h and 48 h the luciferase expression was evaluated by live animal bioluminescence imaging Animals were anesthetized under isofluorane, and D-luciferin monosodium hydrate (GoldBio) substrate was injected subcutaneously in the neck scruff. […]

HeLa-Luc-Cas9 cells = test: Kinetic assay of sgRNA and siRNA delivery (luciferase expression over time); assay type: cell-based
Experimental: The kinetics of luciferase expression after silencing/editing by siRNA and sgRNA were determined in HeLa-Luc-Cas9 cells. For time points <48 h, ZNPs encapsulating sgRNA or siRNA were delivered to HeLa-Luc-Cas9 cells in 96-well plates at a density of 5K cells per well. After 0.5, 1, 2, 4, 11, 20, 30 and 44 h time point, the cell viability and luciferase expression were determined by the One-Glow+Tox assay. For longer time points, cells were treated in 6-well plates. Beginning at the 2 day time point, cells were aspirated, washed with 1×PBS, trypsinized in 200 μL trypsin and re-suspended in 1800 μL medium. 1 mL of each cell suspension was added to a fresh 6-well plate containing 1 mL DMEM (2 mL total) and returned to the incubator. Of the remaining cell suspension, 50 μL was transferred to a 96-well white-opaque plate (10 wells per sample). Cell viability was determined using the Cell-Titer Glo assay normalized to untreated cells, while relative luciferase expression was determined using the One-Glo assay and normalized against control (siCtrl or sgCtrl). Data was plotted as an average of 5 measurements+/−standard deviation.

**Q.** Which “delivery efficacy of mRNA versus PEG lipid ratio” value (IGROV1 cells; PEG-lipid 5, 2, 1 or 0.5 in lipid mix) does the source give for `CCCCCCCCC(O)CN(CCC(=O)NCC[N+](C)(C)CCCS(=O)(=O)[O-])CCN(CCN(CC(O)CCCCCCCC)CC(O)CCCCCCCC)CCN(CC(O)CCCCCCCC)CC(O)CCCCCCCC` (stereo not shown) [ZA3-Ep10] here?
**A.** The value was “decreased with higher PEG lipid ratios”.

**Q.** What about the “luciferase expression versus mRNA dose” value (IGROV1 cells; luciferase mRNA (~2,000 nt), IGROV1 cells) of the same molecule?
**A.** The value was “dose-dependent”.

**Q.** What about the “mRNA dose required for high expression” value (IGROV1 cells; luciferase mRNA, IGROV1 cells) of the same molecule?
**A.** Its value is under 600 pM.

**Q.** And the mCherry expression (IGROV1 cells; mCherry mRNA (~1,000 nt), IGROV1 cells)?
**A.** Its mCherry expression is “Bright mCherry expression”.

**Q.** What about the “change in ZNP size versus PEG lipid ratio” value [1] of the same molecule?
**A.** The value was “modest change”.

**Q.** What about the “tissues with expression of luciferase” value [2] of the same molecule?
**A.** The value was “liver, lung and spleen”.

**Q.** What about the “decrease of luciferase expression” value (HeLa-Luc-Cas9 cells; sgLuc, 20 h) of the same molecule?
**A.** Its value is 40%.

**Q.** And the “decrease of luciferase expression” value (HeLa-Luc-Cas9 cells; sgLuc, after 2 days)?
**A.** The value was 95%.

**Q.** And the remaining luciferase expression (HeLa-Luc-Cas9 cells; sgLuc, persisted throughout the assay (9 days))?
**A.** The remaining luciferase expression was 5%.

**Q.** And the “time luciferase remained low” value (HeLa-Luc-Cas9 cells; siLuc)?
**A.** The value was “about 3 days”.

**Q.** What about the “time until protein expression reached baseline level” value (HeLa-Luc-Cas9 cells; siLuc, after transfection) of the same molecule?
**A.** The value was 6 days.

**Q.** What about the luciferase silenced (HeLa-Luc-Cas9 cells; siLuc, by 20 h) of the same molecule?
**A.** The luciferase silenced was 92%.

**Q.** What about the “decrease of luciferase expression” value (HeLa-Luc-Cas9 cells; siLuc, within the first 4 h) of the same molecule?
**A.** The value was 40%.

— patent US11685710B2, “Cationic sulfonamide amino lipids and amphiphilic zwitterionic amino lipids” (The Board of Regents of the University of Texas System, priority 2016, dated 2023)
